Source: patent US10080739B2, “Aryl imidazoles and their use as anti-cancer agents” (Aptose Biosciences Inc., priority 2003, dated 2018)

Experiments:
[1] = tested on: AMPK; test: kinase profiler, AMPK; type: biochemical, human; conditions: 10 μM compound, 100 μM ATP, mean of % control
Description: (§1) Compound 45 was tested for its ability to function as a kinase inhibitor using the kinase profiler service from Upstate Biotechnologies. The general protocol employed is as follows: recombinant kinases were incubated with specific substrates, 10 mM MgAcetate, and [γ-^33P-ATP]. The reaction was initiated by the addition of MgATP mix. After incubation at room temperature for 40 minutes, the reaction was stopped by the addition of 5 μl of a 3% phosphoric acid solution. 10 μl of the reaction was then spotted on to a P30 filtermat and washed 3 times for 5 min. in 75 mM phosphoric acid and once in methanol prior to drying and scintillation counting. Each reaction was performed in duplicate with 100 μM ATP −/+10 μM compound 45. Results are presented in Table IV and are expressed as the mean of % control (no compound). PI 3-kinase-γ (PI3K-γ) activity was determined with the PIProfiler™ assay, which measures the binding of the GRP1 pleckstrin homology (PH) domain to PIP3, the product of PI3K acting on its physiological substrate PIP2.

[2] = molecular target: T1, CK2 (Homo sapiens, UniProt P68400); test: kinase profiler, CK2; type: biochemical; conditions: 10 μM compound, 100 μM ATP, mean of % control
T1 construct: purchased Upstate Biotechnologies (kinase profiler service)
Description: as §1

[3] = tested on: human colon carcinoma cells (HT-29); test: XTT cell proliferation assay, HT-29 cells, 48 h; type: cell-based; conditions: read-out: % Survival
Description: (§2) Selected compounds of Formula I were tested for anti-cancer activity in vitro using a human colon carcinoma cells (HT-29) and human non-small cell lung cancer cells (H460). The cells were maintained in α-MEM medium (Wisent, St-Bruno, Qc) supplemented with 10% FBS, and grown at 37° C. in an atmosphere of 5% CO2. Cells were transferred onto 150 mm tissue culture plates and grown until sub-confluency (70-80%) prior to their use.
(§3) The anti-cancer activity in vitro was evaluated by a cell proliferation assay based on the ability of live cells to reduce the tetrazolium salt XTT to orange coloured compounds of formazan (XTT cell proliferation kit II, Roche Applied Science, Montreal, QC).
(§4) Approximately 4×10^3 colon cancer cells (HT-29) or 2×10^3 non-small cell lung cancer cells (NCI-H460) in 100 μl of complete culture medium were plated onto 96-well microtiter plates and incubated overnight at 37° C. The medium was then removed by inverting the plate and patting on a sterile absorbent cloth. Fifty μl of medium containing the test compound at either 25 or 100 μM, were added to the wells containing cells and incubated at 37° C. in an atmosphere of 5% CO2 for 48 h. Following incubation, 25 μl of an XTT reaction mixture (XTT at a final concentration of 0.3 mg/ml) were added to each well and the plates were incubated for a further 4 h. The absorbance of each sample was then determined at a wavelength of 490 nm/650 nm as reference. Each compound was tested in duplicate and the results are reported as averages.

[4] = tested on: human non-small cell lung cancer cells (H460); test: XTT cell proliferation assay, H460 cells, 48 h; type: cell-based; conditions: NCI-H460, 48 h, read-out: % Survival
Description: as §2, §3, §4

[5] = molecular target: T2, Abl (Homo sapiens, UniProt P00519); test: kinase profiler, Abl; type: biochemical; conditions: 10 μM compound, 100 μM ATP, mean of % control
T2 construct: purchased Upstate Biotechnologies (kinase profiler service)
Description: as §1

[6] = molecular target: T3, ASK1 (Homo sapiens, UniProt Q99683); test: kinase profiler, ASK1; type: biochemical; conditions: 10 μM compound, 100 μM ATP, mean of % control
T3 construct: purchased Upstate Biotechnologies (kinase profiler service)
Description: as §1

[7] = tested on: MDA-MB-231 breast adenocarcinoma cells; test: morphological changes (vacuoles), MDA-MB-231; type: cell-based, human; conditions: MDA-MB-231 cells, treatment for 24 hours
From the text: These vacuoles are not formed in DMSO- or doxorubicin-treated cells. Moreover, the nuclear membrane is no longer evident in the phase-contrast images of cells treated with compound 45, even though the nucleus is still intact, as shown by DAPI staining.

[8] = molecular target: T4, PKCδ (Homo sapiens, UniProt Q05655); test: kinase profiler, PKCδ; type: biochemical; conditions: 10 μM compound, 100 μM ATP, mean of % control
T4 construct: purchased Upstate Biotechnologies (kinase profiler service)
Description: as §1

[9] = molecular target: T5, PKA (Homo sapiens, UniProt P17612); test: kinase profiler, PKA; type: biochemical; conditions: 10 μM compound, 100 μM ATP, mean of % control
T5 construct: purchased Upstate Biotechnologies (kinase profiler service)
Description: as §1

[10] = molecular target: T6, RAF (Homo sapiens, UniProt P04049); test: kinase profiler, RAF; type: biochemical; conditions: 10 μM compound, 100 μM ATP, mean of % control
T6 construct: purchased Upstate Biotechnologies (kinase profiler service)
Description: as §1

[11] = tested on: leukemia cell lines; test: NCI/DTP screen, leukemia cell lines; type: cell-based, human
Description: The twenty-three compounds of Formula I shown below were evaluated for their antiproliferative effects in a panel of 60 human cancer cell lines as part of the in vitro anticancer screening services provided by the DTP (Developmental Therapeutics Program) of the US National Cancer Institute (NCI) U.S. National Cancer Institute (NCI) of the National Institutes of Health (NIH) in […], Md.
The NCI conducts a standard 48/72 hour 60 cell line assay and an in vitro time course assay as described in Alley et al. (Cancer Res (1988) 48:589). In the standard 60 cell line assay, a minimum of 5 concentrations of the test compound are tested at 10-fold dilutions against 60 cell lines and cell growth is assayed at 48 and 72 hours using a sulphorhodamine B assay. For the time course analysis, tumour cells are treated with the test compound at various time points, then washed and grown in medium free of the test compound until the end of the experiment at 144 hrs. This assay employs 20% FBS to better approximate the minimum c×t (concentrations and times) test compound exposure conditions that are required to achieve activity in vivo. Cell growth is quantified by an MTT assay (similar to the XTT assay described above) and the concentration of the test compound required for growth inhibition is determined. […]

T2 sequence (P00519 whole entry): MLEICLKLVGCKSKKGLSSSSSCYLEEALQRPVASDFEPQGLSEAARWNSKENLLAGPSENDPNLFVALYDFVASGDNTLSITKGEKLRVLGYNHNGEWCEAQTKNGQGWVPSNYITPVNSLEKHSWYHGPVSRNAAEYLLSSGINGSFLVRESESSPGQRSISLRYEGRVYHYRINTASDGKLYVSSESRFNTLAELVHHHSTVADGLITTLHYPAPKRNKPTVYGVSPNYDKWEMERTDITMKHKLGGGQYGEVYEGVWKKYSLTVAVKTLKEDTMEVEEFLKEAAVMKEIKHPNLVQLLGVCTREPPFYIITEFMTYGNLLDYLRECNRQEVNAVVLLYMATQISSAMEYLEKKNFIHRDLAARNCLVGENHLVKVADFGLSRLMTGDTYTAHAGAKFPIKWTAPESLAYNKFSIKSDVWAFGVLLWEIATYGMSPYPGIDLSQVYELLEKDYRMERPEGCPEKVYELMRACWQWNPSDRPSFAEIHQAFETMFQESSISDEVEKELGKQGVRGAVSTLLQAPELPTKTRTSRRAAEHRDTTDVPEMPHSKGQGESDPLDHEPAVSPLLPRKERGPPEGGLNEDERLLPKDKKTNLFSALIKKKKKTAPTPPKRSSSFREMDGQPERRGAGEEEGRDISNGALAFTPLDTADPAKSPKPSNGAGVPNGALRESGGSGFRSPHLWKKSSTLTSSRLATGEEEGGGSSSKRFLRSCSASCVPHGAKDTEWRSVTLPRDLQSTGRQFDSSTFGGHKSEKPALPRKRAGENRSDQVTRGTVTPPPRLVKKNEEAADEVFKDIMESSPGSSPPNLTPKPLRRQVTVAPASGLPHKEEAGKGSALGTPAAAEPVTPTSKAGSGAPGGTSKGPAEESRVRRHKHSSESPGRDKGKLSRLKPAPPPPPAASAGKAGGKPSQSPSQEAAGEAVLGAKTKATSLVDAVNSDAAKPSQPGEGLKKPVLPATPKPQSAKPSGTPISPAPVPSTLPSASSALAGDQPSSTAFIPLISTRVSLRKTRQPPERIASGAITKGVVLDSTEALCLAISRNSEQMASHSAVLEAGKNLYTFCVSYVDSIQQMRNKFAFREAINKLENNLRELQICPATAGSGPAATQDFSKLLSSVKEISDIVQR
T6 sequence (P04049 whole entry): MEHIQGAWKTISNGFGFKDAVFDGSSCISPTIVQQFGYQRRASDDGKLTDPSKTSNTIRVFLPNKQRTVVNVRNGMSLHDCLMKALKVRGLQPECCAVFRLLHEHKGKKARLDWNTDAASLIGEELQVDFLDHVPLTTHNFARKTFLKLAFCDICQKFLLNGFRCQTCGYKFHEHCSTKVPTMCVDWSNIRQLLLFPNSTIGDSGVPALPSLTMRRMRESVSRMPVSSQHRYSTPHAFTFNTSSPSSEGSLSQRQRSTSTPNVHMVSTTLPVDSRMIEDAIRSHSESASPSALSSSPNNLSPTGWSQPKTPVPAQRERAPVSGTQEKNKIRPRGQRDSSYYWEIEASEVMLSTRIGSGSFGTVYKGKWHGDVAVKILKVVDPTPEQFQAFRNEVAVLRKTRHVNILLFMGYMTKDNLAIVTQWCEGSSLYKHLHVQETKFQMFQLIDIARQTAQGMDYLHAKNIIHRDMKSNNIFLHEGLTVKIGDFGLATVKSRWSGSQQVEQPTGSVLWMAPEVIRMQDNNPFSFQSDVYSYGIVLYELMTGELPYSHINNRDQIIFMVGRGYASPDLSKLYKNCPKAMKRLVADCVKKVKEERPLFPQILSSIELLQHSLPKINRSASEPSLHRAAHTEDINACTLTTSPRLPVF
T1 sequence (P68400 whole entry): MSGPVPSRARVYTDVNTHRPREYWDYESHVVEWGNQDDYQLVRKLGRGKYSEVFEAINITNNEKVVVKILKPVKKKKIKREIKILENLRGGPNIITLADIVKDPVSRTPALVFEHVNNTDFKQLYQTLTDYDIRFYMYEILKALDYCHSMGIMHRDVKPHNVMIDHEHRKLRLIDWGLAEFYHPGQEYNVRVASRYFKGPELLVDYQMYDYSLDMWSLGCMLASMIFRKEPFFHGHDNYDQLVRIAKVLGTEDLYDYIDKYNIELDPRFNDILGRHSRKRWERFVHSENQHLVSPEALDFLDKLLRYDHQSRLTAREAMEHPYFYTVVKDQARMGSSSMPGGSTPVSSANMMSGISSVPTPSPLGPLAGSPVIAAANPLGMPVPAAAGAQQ
T1 sequence (P67870 whole entry partner): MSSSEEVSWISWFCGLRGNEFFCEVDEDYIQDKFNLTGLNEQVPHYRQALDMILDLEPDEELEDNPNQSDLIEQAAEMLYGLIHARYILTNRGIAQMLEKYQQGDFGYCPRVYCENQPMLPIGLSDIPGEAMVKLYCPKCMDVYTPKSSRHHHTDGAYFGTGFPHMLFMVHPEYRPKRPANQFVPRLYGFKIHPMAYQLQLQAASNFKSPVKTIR
T4 sequence (Q05655 whole entry): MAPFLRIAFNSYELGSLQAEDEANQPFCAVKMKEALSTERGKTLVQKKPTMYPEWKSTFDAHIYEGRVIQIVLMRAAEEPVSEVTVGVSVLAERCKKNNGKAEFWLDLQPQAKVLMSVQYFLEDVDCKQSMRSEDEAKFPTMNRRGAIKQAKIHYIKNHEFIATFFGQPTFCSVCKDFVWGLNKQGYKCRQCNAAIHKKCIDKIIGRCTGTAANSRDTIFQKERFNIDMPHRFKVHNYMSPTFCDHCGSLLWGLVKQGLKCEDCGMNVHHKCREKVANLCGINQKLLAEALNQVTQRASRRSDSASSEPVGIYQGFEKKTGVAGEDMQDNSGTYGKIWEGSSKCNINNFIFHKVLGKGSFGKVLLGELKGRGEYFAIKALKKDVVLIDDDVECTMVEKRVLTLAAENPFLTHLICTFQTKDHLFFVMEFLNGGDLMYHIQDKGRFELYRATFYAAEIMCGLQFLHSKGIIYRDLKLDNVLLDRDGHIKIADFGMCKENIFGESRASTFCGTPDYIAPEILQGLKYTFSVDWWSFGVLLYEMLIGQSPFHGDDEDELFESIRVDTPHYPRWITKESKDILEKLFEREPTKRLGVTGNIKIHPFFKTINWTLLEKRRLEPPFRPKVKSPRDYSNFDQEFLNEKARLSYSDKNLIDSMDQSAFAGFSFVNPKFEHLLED
T3 sequence (Q99683 whole entry): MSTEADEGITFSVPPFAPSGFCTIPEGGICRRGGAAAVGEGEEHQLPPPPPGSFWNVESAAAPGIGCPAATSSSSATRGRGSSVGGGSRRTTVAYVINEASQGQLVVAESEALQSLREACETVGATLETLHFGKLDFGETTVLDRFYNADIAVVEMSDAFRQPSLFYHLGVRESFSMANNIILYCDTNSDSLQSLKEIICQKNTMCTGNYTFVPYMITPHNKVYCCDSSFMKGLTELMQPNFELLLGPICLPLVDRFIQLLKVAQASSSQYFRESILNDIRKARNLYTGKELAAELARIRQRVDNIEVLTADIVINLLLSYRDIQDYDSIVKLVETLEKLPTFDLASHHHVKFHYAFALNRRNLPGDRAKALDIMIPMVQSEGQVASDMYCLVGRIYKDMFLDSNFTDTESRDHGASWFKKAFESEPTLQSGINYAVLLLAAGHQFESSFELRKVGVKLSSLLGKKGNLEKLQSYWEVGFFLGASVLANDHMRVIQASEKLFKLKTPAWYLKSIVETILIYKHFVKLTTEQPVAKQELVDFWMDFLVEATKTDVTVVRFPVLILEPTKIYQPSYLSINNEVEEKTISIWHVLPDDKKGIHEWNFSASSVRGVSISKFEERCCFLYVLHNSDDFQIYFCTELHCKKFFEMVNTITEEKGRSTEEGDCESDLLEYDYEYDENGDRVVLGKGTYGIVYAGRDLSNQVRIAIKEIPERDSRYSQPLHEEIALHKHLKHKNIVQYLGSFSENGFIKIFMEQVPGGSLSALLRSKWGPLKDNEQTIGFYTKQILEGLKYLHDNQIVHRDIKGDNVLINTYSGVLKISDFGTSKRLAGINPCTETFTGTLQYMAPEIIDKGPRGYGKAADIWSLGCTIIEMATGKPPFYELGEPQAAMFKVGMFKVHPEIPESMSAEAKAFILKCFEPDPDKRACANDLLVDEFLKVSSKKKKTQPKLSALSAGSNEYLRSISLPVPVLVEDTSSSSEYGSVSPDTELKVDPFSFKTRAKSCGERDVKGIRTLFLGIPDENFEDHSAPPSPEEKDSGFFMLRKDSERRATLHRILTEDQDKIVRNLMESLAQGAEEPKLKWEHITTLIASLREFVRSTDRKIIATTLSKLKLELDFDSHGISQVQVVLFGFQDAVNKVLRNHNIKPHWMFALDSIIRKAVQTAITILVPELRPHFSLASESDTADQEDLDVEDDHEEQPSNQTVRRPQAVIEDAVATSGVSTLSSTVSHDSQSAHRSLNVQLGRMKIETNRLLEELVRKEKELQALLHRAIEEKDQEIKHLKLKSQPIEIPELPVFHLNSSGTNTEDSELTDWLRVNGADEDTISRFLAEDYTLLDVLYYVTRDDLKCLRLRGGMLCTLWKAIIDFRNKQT

In the case of Brc1ccc2[nH]cc(-c3nc4c5ccccc5c5ccccc5c4[nH]3)c2c1 [Compound 45], the “% activity” value [1] was 100%, the activity at 10 µM [2] was 91% and the viability at 25 µM ([3]; 25 μM compound) was 88.9%. It also gave a viability at 100 µM ([3]; 100 μM compound) of 35%, a viability at 25 µM [4] of 96% and a viability at 100 µM [4] of 32.7%. The activity at 10 µM [5] was 107%, the activity at 10 µM [6] was 99% and the formation of vacuoles [7] was “formation of large vacuoles within the cytoplasm”. It also gave an activity at 10 µM [8] of 87%, an activity at 10 µM [9] of 83% and an activity at 10 µM [10] of 100%. For the same molecule, the GI50 ([11]; Homo sapiens, leukemia cell lines (FIG. 10B)) was 3.4 µM and the “TGI (total growth inhibition)” value ([11]; leukemia cell lines, 100 μM the highest concentration used (FIG. 10C)) was greater than 100 µM.
